“And” between values parts separate entries of the source, which are not always exact repeats. Equal entries are not always repeated.
How the values were obtained:
[1] = tested on: intraocular pressure of rabbits showing normal baseline intraocular pressure; experiment: Intraocular pressure in rabbits with normal intraocular pressure after topical instillation; type: in vivo, rabbit (Vienna Blue, pigmented); details: 50 μl eye-drops; 0.050% flunarizine, equimolar comparators, 0.5% timolol
Procedure: The effects of the agent of the invention on the intraocular pressure of rabbits showing normal baseline intraocular pressure were evaluated in comparison with the action of a placebo, and with that of various other calcium channel blocking agents. Female pigmented rabbits of the Vienna Blue strain were used (supplied by Charles River Italiana, of Calco (CO)). The age of the animals at the time of starting the experimentation was 9 weeks, and their weight was 2.0-2.5 kg.
The choice of a species with pigmented iris is due to the fact that the latter represents a reliable model for the evaluation of possible modifications of the intraocular pressure caused by the products under test. The strain chosen is genetically defined, so as to limit to a minimum the variability of the biological characteristics between one animal and the other.
The animals were kept in rooms maintained under constant and controlled conditions of temperature and humidity, illuminated for 12 hours a day with artificial light and with continuous renovation of the air. The feed consisted of a standard diet having a constant and known composition, and both feed and water were available ad libitum during the whole period of the test. The rabbits were stabled for 21 days before starting the test, so as to allow a sufficient acclimatation and to suitably evaluate the health conditions of the rabbits. Each experimental group consisted of 4 animals, which were allotted to the treatment groups in a randomised way.
Each different group of animals received, by instillation in the right conjunctival fornix, 50 μl of the following products:
The weight concentrations of the various agents under test are chosen so as to correspond to the same molar concentration.
The pressure in the treated eye was measured by flattening tonometer (TonopenXL®, Mentor), 15 minutes before the instillation of the eyerops (time 0) and then 30, 60, 90, 120, 180 and 240 minutes after. As a local anaesthetic, 5 minutes before carrying out each measurement 25 μl of a commercial ophthalmic solution containing 0.4% oxybuprocaine hydrochloride (Novesine®, Sandoz) was instilled. To carry out the measurement the rabbits were placed in a suitably designed cage, that prevents any sudden movement of the animal under test.
For each animal and at each of the times listed above the average of three subsequent measurements was calculated and recorded, each one said measurements being made after 1 minute from the previous one. The intraocular pressure values at the various times were compared with the values obtained before the treatment, by means of the Student's “t” test. The comparisons between different groups were made by processing the data by the variance analysis (ANOVA) and, where possible, by the Student's “t” test for the comparison of two different experimental groups. Values of p<0.05 were considered to be statistically significant.

[2] = tested on: intraocular pressure of rabbits with ocular hypertension; experiment: Intraocular pressure in rabbits with ocular hypertension induced by α-chymotrypsin; type: in vivo, rabbit (Vienna Blue, pigmented); details: for Intraocular pressure (mmHg) at the time (min): 30, average ± S.D. / Intraocular pressure (mmHg) at the time (min): 60, average ± S.D. / Intraocular pressure (mmHg) at the time (min): 90, average ± S.D. / Intraocular pressure (mmHg) at the time (min): 120, average ± S.D. / Intraocular pressure (mmHg) at the time (min): 180, average ± S.D. / Intraocular pressure (mmHg) at the time (min): 240, average ± S.D. / Intraocular pressure (mmHg) at the time (min): 0, average ± S.D. / Intraocular pressure (mmHg) at the time (min): 30 / Intraocular pressure (mmHg) at the time (min): 60 / Intraocular pressure (mmHg) at the time (min): 90 / Intraocular pressure (mmHg) at the time (min): 120 / Intraocular pressure (mmHg) at the time (min): 180 / Intraocular pressure (mmHg) at the time (min): 240 / Intraocular pressure (mmHg) at the time (min): 0: Table 4, 50 μl; for Intraocular pressure (mmHg) at the time (min): 30, average ± S.D. / Intraocular pressure (mmHg) at the time (min): 60, average ± S.D. / Intraocular pressure (mmHg) at the time (min): 90, average ± S.D. / Intraocular pressure (mmHg) at the time (min): 120, average ± S.D. / Intraocular pressure (mmHg) at the time (min): 180, average ± S.D. / Intraocular pressure (mmHg) at the time (min): 240, average ± S.D. / Intraocular pressure (mmHg) at the time (min): 0, average ± S.D.: average ± S.D. of 4 rabbits; for Intraocular pressure (mmHg) at the time (min): 30, average ± S.D. / Intraocular pressure (mmHg) at the time (min): 30: 30 min after instillation; for Intraocular pressure (mmHg) at the time (min): 60, average ± S.D. / Intraocular pressure (mmHg) at the time (min): 60: 60 min after instillation; for Intraocular pressure (mmHg) at the time (min): 90, average ± S.D. / Intraocular pressure (mmHg) at the time (min): 90: 90 min after instillation; for Intraocular pressure (mmHg) at the time (min): 120, average ± S.D. / Intraocular pressure (mmHg) at the time (min): 120: 120 min after instillation; for Intraocular pressure (mmHg) at the time (min): 180, average ± S.D. / Intraocular pressure (mmHg) at the time (min): 180: 180 min after instillation; for Intraocular pressure (mmHg) at the time (min): 240, average ± S.D. / Intraocular pressure (mmHg) at the time (min): 240: 240 min after instillation; for Intraocular pressure (mmHg) at the time (min): 0, average ± S.D. / Intraocular pressure (mmHg) at the time (min): 0: time 0 = 15 min before instillation (baseline); for Intraocular pressure (mmHg) at the time (min): 30 / Intraocular pressure (mmHg) at the time (min): 60 / Intraocular pressure (mmHg) at the time (min): 90 / Intraocular pressure (mmHg) at the time (min): 120 / Intraocular pressure (mmHg) at the time (min): 180 / Intraocular pressure (mmHg) at the time (min): 240 / Intraocular pressure (mmHg) at the time (min): 0: individual rabbit, right eye
Procedure: Rabbits of the same type as those described in the previous section were used for the following tests.
In the rabbit, the injection of this enzyme in the posterior chamber causes, after one month from the administration, an effect of ocular hypertension.
At the end of the quarantine period the rabbits were anaesthetised by intramuscular administration of ketamine hydrochloride and xylazine hydrochloride (RBI). The right eye was gently pushed outwardly after instilling 25 μl of Novesine® eye-drops, containing oxybuprocaine as an anaesthetic; then, a sterile solution of σ-chymotrypsin (SIGMA, Milan; 150 units in 100 μl of physiologic sterile solution) was injected in the posterior chamber of the right eye by means of a 30G sterile needle. After the administration of the enzyme, the eye was thoroughly washed with physiologic sterile solution in order to remove any traces of α-chymotrypsin which could damage the ocular tissues. Then, 2 drops of a commercial ophthalmic antibiotic solution (Colbiocin®, SIFI S.p.A., containing chloramphenicol, rolitetracycline, colistin methanesulphonate) were instilled. The treatment was carried out 3 times a day (at 8.00 a.m., 12.00 a.m. and 6.00 p.m.) for one week after the administration of α-chymotrypsin. The rabbits were employed in the tests after one month from the induction of ocular hypertension by means of the enzyme.
The rabbits, divided also in this case in groups of 4 animals, were treated by instillation of 50 μl of the product under test in the right conjunctival fornix.
The intraocular pressure in the treated eye was measured, according to the same procedure as in the previous tests, 15 minutes before the instillation of the eye-drops and 30, 60, 90, 120, 180 and 240 minutes after. The values obtained were statistically analysed according to the criteria mentioned in the foregoing.
The experimental conditions were exactly the same as before.

[3] = eye-drops with 0.010% flunarizine
[4] = eye-drops with 0.050% flunarizine
[5] = eye-drops with 0.100% flunarizine

## Fc1ccc(C(c2ccc(F)cc2)N2CCN(C/C=C/c3ccccc3)CC2)cc1 [flunarizine]
[1]
  Effect on intraocular pressure in rabbits with normal pressure, in words: better performance in lowering the intraocular pressure than timolol alone
[2]; 50 μl eye-drops, 0.050% flunarizine, equimolar comparators, 0.5% timolol
  Effect on intraocular pressure in rabbits with ocular hypertension, in words: effectiveness comparable to or better than that of timolol alone
[2]; [3]
  Intraocular pressure (mmHg) at the time (min): 30, average ± S.D.: 55.0 ± 5.35 mmHg
  Intraocular pressure (mmHg) at the time (min): 60, average ± S.D.: 52.7 ± 5.18 mmHg
  Intraocular pressure (mmHg) at the time (min): 90, average ± S.D.: 52.5 ± 5.44 mmHg
  Intraocular pressure (mmHg) at the time (min): 120, average ± S.D.: 55.7 ± 5.18 mmHg
  Intraocular pressure (mmHg) at the time (min): 180, average ± S.D.: 56.5 ± 6.60 mmHg
  Intraocular pressure (mmHg) at the time (min): 240, average ± S.D.: 57.5 ± 6.55 mmHg
  Intraocular pressure (mmHg) at the time (min): 0, average ± S.D.: 57.5 ± 6.13 mmHg
  Intraocular pressure (mmHg) at the time (min): 30: 50 mmHg and 58 mmHg and 61 mmHg and 51 mmHg
  Intraocular pressure (mmHg) at the time (min): 60: 48 mmHg and 55 mmHg and 59 mmHg and 49 mmHg
  Intraocular pressure (mmHg) at the time (min): 90: 49 mmHg and 53 mmHg and 60 mmHg and 48 mmHg
  Intraocular pressure (mmHg) at the time (min): 120: 51 mmHg and 58 mmHg and 62 mmHg and 52 mmHg
  Intraocular pressure (mmHg) at the time (min): 180: 50 mmHg and 60 mmHg and 64 mmHg and 52 mmHg
  Intraocular pressure (mmHg) at the time (min): 240: 52 mmHg (2×) and 61 mmHg and 65 mmHg
  Intraocular pressure (mmHg) at the time (min): 0: 52 mmHg and 60 mmHg and 65 mmHg and 53 mmHg
[2]; [4]
  Intraocular pressure (mmHg) at the time (min): 30, average ± S.D.: 39.5 ± 7.32 mmHg
  Intraocular pressure (mmHg) at the time (min): 60, average ± S.D.: 37.7 ± 7.27 mmHg
  Intraocular pressure (mmHg) at the time (min): 90, average ± S.D.: 40.7 ± 7.63 mmHg
  Intraocular pressure (mmHg) at the time (min): 120, average ± S.D.: 42.2 ± 7.36 mmHg
  Intraocular pressure (mmHg) at the time (min): 180, average ± S.D.: 47.0 ± 8.28 mmHg
  Intraocular pressure (mmHg) at the time (min): 240, average ± S.D.: 47.2 ± 8.18 mmHg
  Intraocular pressure (mmHg) at the time (min): 0, average ± S.D.: 47.7 ± 9.03 mmHg
  Intraocular pressure (mmHg) at the time (min): 30: 47 mmHg and 38 mmHg and 30 mmHg and 43 mmHg
  Intraocular pressure (mmHg) at the time (min): 60: 45 mmHg and 37 mmHg and 28 mmHg and 41 mmHg
  Intraocular pressure (mmHg) at the time (min): 90: 50 mmHg and 38 mmHg and 32 mmHg and 43 mmHg
  Intraocular pressure (mmHg) at the time (min): 120: 51 mmHg and 39 mmHg and 34 mmHg and 45 mmHg
  Intraocular pressure (mmHg) at the time (min): 180: 56 mmHg and 44 mmHg and 37 mmHg and 51 mmHg
  Intraocular pressure (mmHg) at the time (min): 240: 56 mmHg and 45 mmHg and 37 mmHg and 51 mmHg
  Intraocular pressure (mmHg) at the time (min): 0: 57 mmHg and 46 mmHg and 36 mmHg and 52 mmHg
[2]; [5]
  Intraocular pressure (mmHg) at the time (min): 30, average ± S.D.: 42.2 ± 5.31 mmHg
  Intraocular pressure (mmHg) at the time (min): 60, average ± S.D.: 39.2 ± 4.57 mmHg
  Intraocular pressure (mmHg) at the time (min): 90, average ± S.D.: 43.0 ± 5.71 mmHg
  Intraocular pressure (mmHg) at the time (min): 120, average ± S.D.: 45.0 ± 5.71 mmHg
  Intraocular pressure (mmHg) at the time (min): 180, average ± S.D.: 48.5 ± 6.24 mmHg
  Intraocular pressure (mmHg) at the time (min): 240, average ± S.D.: 49.7 ± 5.73 mmHg
  Intraocular pressure (mmHg) at the time (min): 0, average ± S.D.: 49.7 ± 6.6 mmHg
  Intraocular pressure (mmHg) at the time (min): 30: 48 mmHg and 40 mmHg and 36 mmHg and 45 mmHg
  Intraocular pressure (mmHg) at the time (min): 60: 45 mmHg and 38 mmHg and 34 mmHg and 40 mmHg
  Intraocular pressure (mmHg) at the time (min): 90: 49 mmHg and 41 mmHg and 36 mmHg and 46 mmHg
  Intraocular pressure (mmHg) at the time (min): 120: 51 mmHg and 43 mmHg and 38 mmHg and 48 mmHg
  Intraocular pressure (mmHg) at the time (min): 180: 56 mmHg and 47 mmHg and 41 mmHg and 50 mmHg
  Intraocular pressure (mmHg) at the time (min): 240: 57 mmHg and 49 mmHg and 43 mmHg and 50 mmHg
  Intraocular pressure (mmHg) at the time (min): 0: 58 mmHg and 48 mmHg and 42 mmHg and 51 mmHg
